In ChEMBL document CHEMBL4732147, “A novel [5.2.1]bicyclic amine is a potent analgesic without µ opioid activity” (Bioorg Med Chem Lett, 2021):
Calls of active or inactive are those of the source. The rule behind the calls is not given here.

Legend:
Mu-type opioid receptor [1] = target: T1, Mu-type opioid receptor (Homo sapiens, UniProt P35372); assay: Agonist activity at human Gi/G0-coupled mu opioid receptor expressed in human U2OS cells co-expressing EA-tagged beta-arrestin2 assessed as beta-arrestin 2 recruitment by PathHunter assay; format: cell-based
T1 sequence (P35372 whole entry): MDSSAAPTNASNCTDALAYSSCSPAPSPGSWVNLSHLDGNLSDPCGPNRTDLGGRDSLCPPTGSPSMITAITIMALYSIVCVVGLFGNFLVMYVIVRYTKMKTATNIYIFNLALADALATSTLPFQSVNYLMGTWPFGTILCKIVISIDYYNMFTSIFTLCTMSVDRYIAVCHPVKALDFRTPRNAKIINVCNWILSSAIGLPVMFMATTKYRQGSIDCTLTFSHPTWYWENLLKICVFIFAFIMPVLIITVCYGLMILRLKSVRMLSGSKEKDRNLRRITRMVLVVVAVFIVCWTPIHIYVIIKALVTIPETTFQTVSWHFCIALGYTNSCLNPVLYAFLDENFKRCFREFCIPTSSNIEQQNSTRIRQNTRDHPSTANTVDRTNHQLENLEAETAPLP

Mus musculus [2] = assay: Analgesic activity in sc dosed ddY mouse assessed as protection against acetic acid-induced writhing; format: functional
[3] = Toxicity in sc dosed ddY mouse assessed as effect on locomotor activity; format: organism-based; details: in vivo
Mus musculus [4] = assay: Analgesic activity in sc dosed ddY mouse assessed as tail flicking; format: functional
[5] = Drug concentration in ddY mouse brain at 30 mg/kg, sc; format: ADME, organism-based; details: in vivo, read-out: Ct; also: time not given here
Mus musculus [6] = assay: Analgesic activity in ddY mouse assessed as tail flicking at 30 mg/kg, sc relative to control; format: functional
[7] = Plasma concentration in ddY mouse at 30 mg/kg, sc; format: ADME, organism-based; details: in vivo; also: time not given here
Mus musculus [8] = assay: Analgesic activity in ddY mouse assessed as protection against acetic acid-induced writhing at 30 mg/kg, sc relative to control; format: functional
[9] = Oral bioavailability in mouse at 10 mg/kg; format: ADME, organism-based; details: in vivo
Mu-type opioid receptor [10] = target: T1, Mu-type opioid receptor; assay: Binding affinity to mu opioid receptor (unknown origin)
[11] = Half life in mouse at 10 mg/kg; format: ADME, organism-based; details: in vivo
[12] = Permeability of compound by PAMPA; format: ADME
Cytochrome P450 = assay: Metabolic stability in human cytochrome P450 assessed as parent compound remaining; format: ADME, protein assay; also: time not given here
[13] = Clearance in mouse at 10 mg/kg; format: ADME, organism-based; details: in vivo
[14] = Lipophilicity, log D of compound; format: physicochemical; details: octanol/water
[15] = Apparent clearance in mouse at 10 mg/kg; format: ADME, organism-based; details: in vivo
[16] = Protein binding in mouse; format: ADME, organism-based; details: in vivo, read-out: PB (converted)
[17] = Metabolic stability in mouse cytochrome P450 assessed as parent compound remaining; format: ADME; also: time not given here
[18] = Drug concentration in ddY mouse brain at 10 mg/kg; format: ADME, organism-based; details: in vivo, read-out: Ct; also: time not given here
Mus musculus [19] = assay: Analgesic activity in ddY mouse assessed as protection against acetic acid-induced writhing at 3 mg/kg, sc relative to control; format: functional
Mus musculus [20] = assay: Analgesic activity in ddY mouse assessed as tail flicking at 300 mg/kg, sc; format: functional, organism-based
[21] = Toxicity in ddY mouse assessed as hyperactivity at 10 mg/kg, sc; format: organism-based; details: in vivo

Row | SMILES | EC50 (Mu-type opioid receptor [1]) [µM] | ED50 (Mus musculus [2]) [mg/kg] | ED50 (Mus musculus [4]) [mg/kg] | concentration [5] [µM] | MPE (Mus musculus [6]) [%] | concentration [7] [µM] | Activity (Mus musculus [8]) [%] | other results
1 | OCCN1Cc2ccccc2CN2CC[C@@]1(c1ccccc1)C2 | > 20 | 18.2 | > 30 | 21.8 | 18 | 2.7 | – | ID50 [3]: 37 mg/kg
2 | COc1cccc2c1CN1CC[C@@](c3ccccc3)(C1)N(C)C2 | > 20 | < 30 | 16 | 31.1 | – | 3.1 | 100 | ID50 [3]: 19 mg/kg
3 | CN1Cc2cc(O)ccc2CN2CC[C@@]1(c1ccccc1)C2 | > 20 | 4.6 | 6.2 | 8.33 | – | 0.74 | – | ID50 [3]: 5.2 mg/kg
4 | c1ccc([C@@]23CCN(Cc4ccccc4CN2)C3)cc1 | > 20 | < 30 | > 30 | 49.2 | 19 | 2.2 | 72 | –
5 | COc1cccc2c1CN(C)[C@@]1(c3ccccc3)CCN(C2)C1 | > 20 | > 30 | – | 6.2 | – | 13.4 | 9.2 | –
6 | COc1ccc2c(c1)CN1CC[C@@](c3ccccc3)(C1)N(C)C2 | > 20 | < 30 | > 30 | 24.8 | 36 | 2.2 | 59 | –
7 | CN1Cc2ccc(O)cc2CN2CC[C@@]1(c1ccccc1)C2 | 2.4 | – | – | 19.4 | – | 1.5 | 100 | –
8 | CN1Cc2ccccc2CN2CC[C@@]1(c1ccccc1)C2 | > 20 | 2 | 17 | – | – | 0.7 | – | bioavailability [9]: 55.2%; Ki (Mu-type opioid receptor [10]): 1.33 µM; half-life [11]: 1.06 h; permeability [12]: Permeable; ID50 [3]: 15 mg/kg; Stabilty (Cytochrome P450): 72%; clearance [13]: 261 mL/min/kg; logD [14]: 3; CL/F [15]: 264 mL/min/kg; fraction unbound [16]: 0.16; Stabilty [17]: 1%; concentration [18]: 16.3 µM
9 | CCN1Cc2ccccc2CN2CC[C@@]1(c1ccccc1)C2 | 4 | < 30 | > 10 | 33.3 | 43 | 1.8 | 100 | –
10 | CCC(=O)N1Cc2ccccc2CN2CC[C@@]1(c1ccccc1)C2 | > 20 | ≥ 30 | – | 8.4 | – | 5 | 87 | –
11 | CCCN1Cc2ccccc2CN2CCC1(c1ccccc1)C2 (racemic) | 0.7 | < 3 | – | – | – | – | – | Activity (Mus musculus [19]): 100%
12 | CN(C)C(=O)CN1Cc2ccccc2CN2CC[C@@]1(c1ccccc1)C2 | > 20 | > 30 | – | 5.3 | – | 4 | 52 | –
13 | CN1Cc2cccc(O)c2CN2CC[C@@]1(c1ccccc1)C2 | > 20 | < 30 | > 30 | 13 | 6 | 0.77 | 93 | –
14 | O=C1N[C@@]2(c3ccccc3)CCN(Cc3ccccc31)C2 | – | > 30 | – | 11.2 | – | 4.4 | 23 | Activity (Mus musculus [20]): inactive
15 | CC(=O)N1Cc2ccccc2CN2CC[C@@]1(c1ccccc1)C2 | > 20 | 31 | > 30 | 6.3 | 4.9 | 7.8 | – | –
16 | CN1Cc2ccccc2CN2CC[C@]1(c1ccccc1)C2 | 3 | 1 | 1.7 | – | – | 0.75 | – | concentration [18]: 15.6 µM; Activity [21]: Toxic
17 | COc1ccc2c(c1)CN(C)[C@@]1(c3ccccc3)CCN(C2)C1 | > 20 | 11 | 18 | 6.9 | – | 0.73 | – | ID50 [3]: 14 mg/kg
18 | CN1Cc2c(O)cccc2CN2CC[C@@]1(c1ccccc1)C2 | > 20 | < 30 | – | 18.9 | – | 1.9 | 56 | –
19 | O=C1N[C@]2(c3ccccc3)CCN(Cc3ccccc31)C2 | – | < 30 | – | 7.7 | – | 3.5 | 23 | –
